Reference: PMC9325861, “Mouse precision-cut liver slices as an ex vivo model to study drug-induced cholestasis” (Archives of Toxicology, 2022)
Where a name gives a salt, the structure may show the parent alone.

Legend:
Fxr (Nr1h4) = experiment: qRT-PCR gene expression in mouse PCLS: Fxr; format: cell-based; settings: 48 h, 30 µM CPZ in the presence of the humanized BA mixture
Description: (§1) In short, freshly prepared PCLS were transferred to 12-well plates (Greiner bio-one GmbH, Austria), one slice per well. Each well was filled with 1.3 mL pre-heated (37 ℃) and oxygenated (80%) Williams Medium E (1X, glutaMAX-1), which had been supplemented with 25 mM D-glucose monohydrate and 50 μg/ml Gentamicin (denoted as WME GG). […] The DMSO concentration used was below 0.5% in the incubation medium, equivalent to DMSO concentrations in solutions prepared by dilution of BA stock solutions with WME GG.
(§2) Three PCLS incubated under a given condition were pooled in a 1.5-mL Rnase-free test tube, snap-frozen in liquid nitrogen, and stored at – 80 °C until analysis. RNA was isolated using a FavorPrep Tissue Total RNA Mini Kit (Favorgen, Vienna, Austria). Subsequently, the RNA yield was quantified using a NanoDrop One instrument (Thermo Fisher Scientific, Massachusetts, USA). Isolated RNA was reverse-transcribed to cDNA using a cDNA synthesis kit (Reverse Transcription System, Promega, Benelux B.V.). […]
(§3) qRT-PCR was used to determine the relative mRNA expression levels for the mouse target genes: Bsep (Abcb11), Mrp2 (Abcc2), Mrp3 (Abcc3), Mrp4 (Abcc4), Ntcp (Slc10a1), Fxr (Nr1h4), Cyp7a1 (Cyp7a1), Collagen type 1a1 (Col1a1), Hsp47 (Serpinh1). […] Samples were measured in duplicates. […] Results are expressed as log2(fold change).

Mrp3 (Abcc3) = experiment: qRT-PCR gene expression in mouse PCLS: Mrp3; format: cell-based; settings: 48 h, in the presence and absence of BAs
Description: In short, freshly prepared PCLS were transferred to 12-well plates (Greiner bio-one GmbH, Austria), one slice per well.
(§4) Three PCLS incubated under a given condition were pooled in a 1.5-mL Rnase-free test tube, snap-frozen in liquid nitrogen, and stored at – 80 °C until analysis. RNA was isolated using a FavorPrep Tissue Total RNA Mini Kit (Favorgen, Vienna, Austria). Subsequently, the RNA yield was quantified using a NanoDrop One instrument (Thermo Fisher Scientific, Massachusetts, USA). Isolated RNA was reverse-transcribed to cDNA using a cDNA synthesis kit (Reverse Transcription System, Promega, Benelux B.V.). The cDNA samples were subsequently loaded in the thermal cycler with a program set to 22 °C for 10 min, 42 °C for 15 min, and 95 °C for 5 min.
qRT-PCR was used to determine the relative mRNA expression levels for the mouse target genes: Bsep (Abcb11), Mrp2 (Abcc2), Mrp3 (Abcc3), Mrp4 (Abcc4), Ntcp (Slc10a1), Fxr (Nr1h4), Cyp7a1 (Cyp7a1), Collagen type 1a1 (Col1a1), Hsp47 (Serpinh1). Primer sequences of the genes tested are given in Supplementary Table S1. QRT-PCR was performed using, the dye, FastStart Universal SYBR Green Master Mix (Roche Diagnostics Netherlands B.V., Almere, the Netherlands) with the ViiA™ 7 Real-Time PCR System (Applied Biosystems, Bleiswijk, the Netherlands). […] Samples were measured in duplicates. […] Results are expressed as log2(fold change).

Ntcp (Slc10a1) = experiment: qRT-PCR gene expression in mouse PCLS: Ntcp; format: cell-based; settings: 48 h
Description: as §1, §4
qRT-PCR was used to determine the relative mRNA expression levels for the mouse target genes: Bsep (Abcb11), Mrp2 (Abcc2), Mrp3 (Abcc3), Mrp4 (Abcc4), Ntcp (Slc10a1), Fxr (Nr1h4), Cyp7a1 (Cyp7a1), Collagen type 1a1 (Col1a1), Hsp47 (Serpinh1). Primer sequences of the genes tested are given in Supplementary Table S1. QRT-PCR was performed using, the dye, FastStart Universal SYBR Green Master Mix (Roche Diagnostics Netherlands B.V., Almere, the Netherlands) with the ViiA™ 7 Real-Time PCR System (Applied Biosystems, Bleiswijk, the Netherlands). The first cycle constituted 10 min at 95 °C, followed by 40 cycles of 15 s at 95 °C, 30 s at 60 °C and 30 s at 72 °C, followed by 1 cycle dissociation stage (15 s: 95 °C, 60 °C and 95 °C). A minimum of four mouse livers was used for each experiment, using three PCLS per condition. Samples were measured in duplicates. […] Results are expressed as log2(fold change).

human PCLS = test system: human PCLS; parameters: method as in Vatakuti et al. [2017]; settings: 30 µM CPZ, without BA mixture, ref Vatakuti et al. [2017]; cited from earlier work
Hsp47 (Serpinh1) = experiment: qRT-PCR gene expression in mouse PCLS: Hsp47; format: cell-based; settings: 48 h, in the presence of BAs, highest concentration (30 µM CPZ)
Description: as §1, §2, §3

MRP2 = test system: MRP2; parameters: method as in Pedersen et al. [2008]; Morgan et al. [2013]; settings: ref Pedersen et al. [2008]; Morgan et al. [2013]; cited from earlier work
[1] = test system: primary human hepatocytes; parameters: method as in Ogimura et al. [2017]; settings: in the presence of a BA mixture, ref Ogimura et al. [2017], read-out: Concentration with 50% toxicity; cited from earlier work
rat PCLS = test system: rat PCLS; parameters: method as in Starokozhko et al. [2017a]; settings: control 156.5, ref Starokozhko et al. [2017a]; cited from earlier work
mouse Bsep protein = test system: mouse Bsep protein; parameters: method as in Noe et al. [2001]; settings: ref Noe et al. [2001]; cited from earlier work
[2] = BAs present, highest concentration of CPZ, lowest concentration of GB

Compound | Fxr gene expression (Fxr (Nr1h4)) | Mrp3 gene expression (Mrp3 (Abcc3)) | Ntcp gene expression (Ntcp (Slc10a1); [2]) | Decrease in ATP content (human PCLS) [%] | Hsp47 gene expression (Hsp47 (Serpinh1)) | Effect on MRP2 activity on a protein level (MRP2) | Ntcp gene expression (Ntcp (Slc10a1); in the absence of BAs) | IC50 [1] [µM] | Intracellular GCA concentration after drug incubation (rat PCLS) [pmol/mg protein] | Inhibition of the mouse Bsep protein (mouse Bsep protein)
CN(C)CCCN1c2ccccc2Sc2ccc(Cl)cc21 [CPZ, Chlorpromazine hydrochloride] | small, but not significant, increase | reduces | increase the expression of Ntcp significantly | 40 | significantly increased | – | – | – | – | –
COc1ccc(Cl)cc1C(=O)NCCc1ccc(S(=O)(=O)NC(=O)NC2CCCCC2)cc1 [GB, Glibenclamide] | – | – | increase the expression of Ntcp significantly | – | – | stimulate MRP2 activity | decrease the Ntcp expression | 103 | 364.3 | competitively inhibit
